Assay results as given in US20230085307A1, “PYRIDAZINONE COMPOUND AND HERBICIDE” (NISSAN CHEMICAL CORPORATION, priority 2019, published 2023).

Key:
persian speedwell = experiment: Test Example 5: herbicidal effect by foliage application, plastic box (Table 20, symbol R); type: in vivo, Persian speedwell (Veronica persica); conditions: evaluated three weeks after application
Procedure, shortened: (§1)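 Plants were sown into sterilized diluvial soil under about 1.5 cm cover and kept in a greenhouse at 25° C. to 30° C. Fourteen days on, foliage received an even spray of the diluted emulsion. Herbicidal or crop effect was judged three weeks afterwards.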

windgrass [1] = experiment: Test Example 5: herbicidal effect by foliage application, plastic box (Table 20, symbol L); type: in vivo, windgrass (Apera spica-venti); conditions: evaluated three weeks after application
Procedure, shortened: as §1

Japanese bulrush = experiment: Test Example 1: herbicidal activity, application before weed generation under submerged conditions (Table 16, symbol B); type: in vivo, Japanese bulrush (Schoenoplectus juncoides)
Procedure, shortened: (§2)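 Submerged Wagner pots (alluvial soil, 4 cm water) sown with weed seeds and planted with 2.5-leaf rice seedlings; emulsifiable concentrate diluted in water applied to water surface on sowing day. Held in greenhouse at 25-30 °C; injury scored 0-5 by herbicidal rate after three weeks.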

Italian ryegrass [2] = experiment: Test Example 5: herbicidal effect by foliage application, plastic box (Table 20, symbol K); type: in vivo, Italian ryegrass (Lolium multiflorum); conditions: evaluated three weeks after application
Procedure, shortened: as §1

chickweed [3] = experiment: Test Example 5: herbicidal effect by foliage application, plastic box (Table 20, symbol P); type: in vivo, common chickweed (Stellaria media); conditions: evaluated three weeks after application
Procedure, shortened: as §1

green foxtail [4] = experiment: Test Example 5: herbicidal effect by foliage application, plastic box (Table 20, symbol G); type: in vivo, green foxtail (Setaria viridis); conditions: evaluated three weeks after application
Procedure, shortened: as §1

Chinese sprangletop = experiment: Test Example 3: herbicidal effect by foliage application, Wagner pot (Table 18, symbol D); type: in vivo, chinese sprangletop (Leptochloa chinensis); conditions: 320 g/ha
Procedure, shortened: (§3)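 Plants were sown in alluvial soil held under 0.1–0.5 cm standing water and grown 14 days in a greenhouse at 25–30 °C. An emulsifiable formulation, water-diluted to the set dose, was then sprayed onto the foliage, and effects were scored three weeks later using previously defined criteria.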

barnyard grass [5] = experiment: Test Example 5: herbicidal effect by foliage application, plastic box (Table 20, symbol H); type: in vivo, barnyard grass (Echinochloa crus-galli); conditions: evaluated three weeks after application
Procedure, shortened: as §1

barnyard grass [6] = experiment: Test Example 4: herbicidal effect by soil treatment (Table 19, symbol H); type: in vivo, barnyard grass (Echinochloa crus-galli)
Procedure, shortened: (§4)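 In this soil treatment, the formulated compound reached the seeds only through the soil: seeds were buried about 1.5 cm deep in sterilized diluvial soil, then the diluted emulsion was sprayed over the surface. After three weeks at 25° C. to 30° C. in a greenhouse, effects were graded on criteria from an earlier test.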

redroot pigweed [7] = experiment: Test Example 5: herbicidal effect by foliage application, plastic box (Table 20, symbol N); type: in vivo, redroot pigweed (Amaranthus retroflexus); conditions: evaluated three weeks after application
Procedure, shortened: as §1

oval-leafed pondweed = experiment: Test Example 1: herbicidal activity, application before weed generation under submerged conditions (Table 16, symbol C); type: in vivo, oval-leafed pondweed (Monochoria vaginalis)
Procedure, shortened: as §2

rice flat sedge = experiment: Test Example 3: herbicidal effect by foliage application, Wagner pot (Table 18, symbol E); type: in vivo, rice flat sedge (Cyperus iria); conditions: 320 g/ha
Procedure, shortened: as §3

wild oat [8] = experiment: Test Example 4: herbicidal effect by soil treatment (Table 19, symbol I); type: in vivo, wild oat (Avena fatua)
Procedure, shortened: as §4

late watergrass = experiment: Test Example 1: herbicidal activity, application before weed generation under submerged conditions (Table 16, symbol A); type: in vivo, late watergrass (Echinochloa oryzicola)
Procedure, shortened: as §2

redroot pigweed [9] = experiment: Test Example 4: herbicidal effect by soil treatment (Table 19, symbol N); type: in vivo, redroot pigweed (Amaranthus retroflexus)
Procedure, shortened: as §4

blackgrass [10] = experiment: Test Example 5: herbicidal effect by foliage application, plastic box (Table 20, symbol J); type: in vivo, blackgrass (Alopecurus myosuroides); conditions: evaluated three weeks after application
Procedure, shortened: as §1

velvetleaf [11] = experiment: Test Example 4: herbicidal effect by soil treatment (Table 19, symbol M); type: in vivo, velvetleaf (Abutilon theophrasti)
Procedure, shortened: as §4

blackgrass [12] = experiment: Test Example 4: herbicidal effect by soil treatment (Table 19, symbol J); type: in vivo, blackgrass (Alopecurus myosuroides)
Procedure, shortened: as §4

green foxtail [13] = experiment: Test Example 4: herbicidal effect by soil treatment (Table 19, symbol G); type: in vivo, green foxtail (Setaria viridis)
Procedure, shortened: as §4

southern crabgrass [14] = experiment: Test Example 4: herbicidal effect by soil treatment (Table 19, symbol F); type: in vivo, southern crabgrass (Digitaria ciliaris)
Procedure, shortened: as §4

windgrass [15] = experiment: Test Example 4: herbicidal effect by soil treatment (Table 19, symbol L); type: in vivo, windgrass (Apera spica-venti)
Procedure, shortened: as §4

lambsquarters [16] = experiment: Test Example 5: herbicidal effect by foliage application, plastic box (Table 20, symbol O); type: in vivo, lambsquarters (Chenopodium album); conditions: evaluated three weeks after application
Procedure, shortened: as §1

Italian ryegrass [17] = experiment: Test Example 4: herbicidal effect by soil treatment (Table 19, symbol K); type: in vivo, Italian ryegrass (Lolium multiflorum)
Procedure, shortened: as §4

lambsquarters [18] = experiment: Test Example 4: herbicidal effect by soil treatment (Table 19, symbol O); type: in vivo, lambsquarters (Chenopodium album)
Procedure, shortened: as §4

southern crabgrass [19] = experiment: Test Example 5: herbicidal effect by foliage application, plastic box (Table 20, symbol F); type: in vivo, southern crabgrass (Digitaria ciliaris); conditions: evaluated three weeks after application
Procedure, shortened: as §1

chickweed [20] = experiment: Test Example 4: herbicidal effect by soil treatment (Table 19, symbol P); type: in vivo, common chickweed (Stellaria media)
Procedure, shortened: as §4

wild oat [21] = experiment: Test Example 5: herbicidal effect by foliage application, plastic box (Table 20, symbol I); type: in vivo, wild oat (Avena fatua); conditions: evaluated three weeks after application
Procedure, shortened: as §1

velvetleaf [22] = experiment: Test Example 5: herbicidal effect by foliage application, plastic box (Table 20, symbol M); type: in vivo, velvetleaf (Abutilon theophrasti); conditions: evaluated three weeks after application
Procedure, shortened: as §1

barnyard grass [23] = experiment: Test Example 3: herbicidal effect by foliage application, Wagner pot (Table 18, symbol H); type: in vivo, barnyard grass (Echinochloa crus-galli); conditions: 320 g/ha
Procedure, shortened: as §3

[24] = amount of applied herbicide 320 g/ha, foliage application after 14-day growth
[25] = amount of applied herbicide 320 g/ha

Structure (SMILES): Cc1nn(C)c(=O)c(-c2c(-c3ccc(OS(=O)(=O)C(F)(F)F)cc3)sc3ccc(F)cc23)c1O [2-075]
- herbicidal effect on R: persian speedwell (persian speedwell; foliage application, 320 g/ha): 5 (Herbicidal rate of 90% or more (almost completely withered))
- herbicidal effect on L: windgrass (windgrass [1]; foliage application, 320 g/ha): 0 (Herbicidal rate of 5% or less (almost no effect))
- Herbicidal effect on B: Japanese bulrush (grade 0-5) (Japanese bulrush; 320 g/ha applied herbicide): 2 (Herbicidal rate of 20% or more and less than 40%)
- herbicidal effect on K: Italian ryegrass (Italian ryegrass [2]; foliage application, 320 g/ha): 0 (Herbicidal rate of 5% or less (almost no effect))
- herbicidal effect on P: chickweed (chickweed [3]; foliage application, 320 g/ha): 3 (Herbicidal rate of 40% or more and less than 70%)
- herbicidal effect on G: green foxtail (green foxtail [4]; foliage application, 320 g/ha): 0 (Herbicidal rate of 5% or less (almost no effect))
- herbicidal effect on D (Chinese sprangletop), rating 0-5 (Chinese sprangletop): 2 (Herbicidal rate of 20% or more and less than 40%)
- herbicidal effect on H: barnyard grass (barnyard grass [5]; foliage application, 320 g/ha): 0 (Herbicidal rate of 5% or less (almost no effect))
- herbicidal effect rating, H: barnyard grass (barnyard grass [6]; 320 g/ha): 0 (Herbicidal rate of 5% or less (almost no effect))
- herbicidal effect on N: redroot pigweed (redroot pigweed [7]; foliage application, 320 g/ha): 2 (Herbicidal rate of 20% or more and less than 40%)
- Herbicidal effect on C: oval-leafed pondweed (grade 0-5) (oval-leafed pondweed; 320 g/ha applied herbicide): 0 (Herbicidal rate of 5% or less (almost no effect))
- herbicidal effect on E (rice flat sedge), rating 0-5 (rice flat sedge): 4 (Herbicidal rate of 70% or more and less than 90%)
- herbicidal effect rating, I: wild oat (wild oat [8]; 320 g/ha): 0 (Herbicidal rate of 5% or less (almost no effect))
- Herbicidal effect on A: late watergrass (grade 0-5) (late watergrass; 320 g/ha applied herbicide): 2 (Herbicidal rate of 20% or more and less than 40%)
- herbicidal effect rating, N: redroot pigweed (redroot pigweed [9]; 320 g/ha): 1 (Herbicidal rate of 5% or more and less than 20%)
- herbicidal effect on J: blackgrass (blackgrass [10]; foliage application, 320 g/ha): 0 (Herbicidal rate of 5% or less (almost no effect))
- herbicidal effect rating, M: velvetleaf (velvetleaf [11]; 320 g/ha): 0 (Herbicidal rate of 5% or less (almost no effect))
- herbicidal effect rating, J: blackgrass (blackgrass [12]; 320 g/ha): 0 (Herbicidal rate of 5% or less (almost no effect))
- herbicidal effect rating, G: green foxtail (green foxtail [13]; 320 g/ha): 0 (Herbicidal rate of 5% or less (almost no effect))
- herbicidal effect rating, F: southern crabgrass (southern crabgrass [14]; 320 g/ha): 0 (Herbicidal rate of 5% or less (almost no effect))
- herbicidal effect rating, L: windgrass (windgrass [15]; 320 g/ha): 0 (Herbicidal rate of 5% or less (almost no effect))
- herbicidal effect on O: lambsquarters (lambsquarters [16]; foliage application, 320 g/ha): 3 (Herbicidal rate of 40% or more and less than 70%)
- herbicidal effect rating, K: Italian ryegrass (Italian ryegrass [17]; 320 g/ha): 0 (Herbicidal rate of 5% or less (almost no effect))
- herbicidal effect rating, O: lambsquarters (lambsquarters [18]; 320 g/ha): 3 (Herbicidal rate of 40% or more and less than 70%)
- herbicidal effect on F: southern crabgrass (southern crabgrass [19]; foliage application, 320 g/ha): 0 (Herbicidal rate of 5% or less (almost no effect))
- herbicidal effect rating, P: chickweed (chickweed [20]; 320 g/ha): 0 (Herbicidal rate of 5% or less (almost no effect))
- herbicidal effect on I: wild oat (wild oat [21]; foliage application, 320 g/ha): 0 (Herbicidal rate of 5% or less (almost no effect))
- herbicidal effect on M: velvetleaf (velvetleaf [22]; foliage application, 320 g/ha): 3 (Herbicidal rate of 40% or more and less than 70%)
- herbicidal effect on H (barnyard grass), rating 0-5 (barnyard grass [23]): 2 (Herbicidal rate of 20% or more and less than 40%)

Structure (SMILES): Cc1nn(C)c(=O)c(-c2c(-c3ccc(F)cc3)sc3c(C)cccc23)c1O [4-100]
- Herbicidal effect by foliage application, R: persian speedwell (persian speedwell; [24]): 5 (Herbicidal rate of 90% or more (almost completely withered))
- Herbicidal effect by foliage application, L: windgrass (windgrass [1]; [24]): 1 (Herbicidal rate of 5% or more and less than 20%)
- Herbicidal effect, B: Japanese bulrush (Japanese bulrush; [25]): 3 (Herbicidal rate of 40% or more and less than 70%)
- Herbicidal effect by foliage application, K: Italian ryegrass (Italian ryegrass [2]; [24]): 3 (Herbicidal rate of 40% or more and less than 70%)
- Herbicidal effect by foliage application, P: chickweed (chickweed [3]; [24]): 5 (Herbicidal rate of 90% or more (almost completely withered))
- Herbicidal effect by foliage application, G: green foxtail (green foxtail [4]; [24]): 0 (Herbicidal rate of 5% or less (almost no effect))
- herbicidal effect on Chinese sprangletop (D) (Chinese sprangletop): 0 (Herbicidal rate of 5% or less (almost no effect))
- Herbicidal effect by foliage application, H: barnyard grass (barnyard grass [5]; [24]): 0 (Herbicidal rate of 5% or less (almost no effect))
- Herbicidal effect by soil treatment, H: barnyard grass (barnyard grass [6]; [25]): 0 (Herbicidal rate of 5% or less (almost no effect))
- Herbicidal effect by foliage application, N: redroot pigweed (redroot pigweed [7]; [24]): 4 (Herbicidal rate of 70% or more and less than 90%)
- Herbicidal effect, C: oval-leafed pondweed (oval-leafed pondweed; [25]): 1 (Herbicidal rate of 5% or more and less than 20%)
- herbicidal effect on rice flat sedge (E) (rice flat sedge): 0 (Herbicidal rate of 5% or less (almost no effect))
- Herbicidal effect by soil treatment, I: wild oat (wild oat [8]; [25]): 0 (Herbicidal rate of 5% or less (almost no effect))
- Herbicidal effect, A: late watergrass (late watergrass; [25]): 3 (Herbicidal rate of 40% or more and less than 70%)
- Herbicidal effect by soil treatment, N: redroot pigweed (redroot pigweed [9]; [25]): 3 (Herbicidal rate of 40% or more and less than 70%)
- Herbicidal effect by foliage application, J: blackgrass (blackgrass [10]; [24]): 3 (Herbicidal rate of 40% or more and less than 70%)
- Herbicidal effect by soil treatment, M: velvetleaf (velvetleaf [11]; [25]): 3 (Herbicidal rate of 40% or more and less than 70%)
- Herbicidal effect by soil treatment, J: blackgrass (blackgrass [12]; [25]): 0 (Herbicidal rate of 5% or less (almost no effect))
- Herbicidal effect by soil treatment, G: green foxtail (green foxtail [13]; [25]): 1 (Herbicidal rate of 5% or more and less than 20%)
- Herbicidal effect by soil treatment, F: southern crabgrass (southern crabgrass [14]; [25]): 0 (Herbicidal rate of 5% or less (almost no effect))
- Herbicidal effect by soil treatment, L: windgrass (windgrass [15]; [25]): 0 (Herbicidal rate of 5% or less (almost no effect))
- Herbicidal effect by foliage application, O: lambsquarters (lambsquarters [16]; [24]): 5 (Herbicidal rate of 90% or more (almost completely withered))
- Herbicidal effect by soil treatment, K: Italian ryegrass (Italian ryegrass [17]; [25]): 0 (Herbicidal rate of 5% or less (almost no effect))
- Herbicidal effect by soil treatment, O: lambsquarters (lambsquarters [18]; [25]): 4 (Herbicidal rate of 70% or more and less than 90%)
- Herbicidal effect by foliage application, F: southern crabgrass (southern crabgrass [19]; [24]): 0 (Herbicidal rate of 5% or less (almost no effect))
- Herbicidal effect by soil treatment, P: chickweed (chickweed [20]; [25]): 3 (Herbicidal rate of 40% or more and less than 70%)
- Herbicidal effect by foliage application, I: wild oat (wild oat [21]; [24]): 0 (Herbicidal rate of 5% or less (almost no effect))
- Herbicidal effect by foliage application, M: velvetleaf (velvetleaf [22]; [24]): 5 (Herbicidal rate of 90% or more (almost completely withered))
- herbicidal effect on barnyard grass (H) (barnyard grass [23]): 2 (Herbicidal rate of 20% or more and less than 40%)
